The source of these data is paper PMC8351955, “Targeting Mycobacterium tuberculosis response to environmental cues for the development of effective antitubercular drugs” (PLoS Biology, 2021).

The subject of data set [1] is Mtb growth in J774 macrophage-like cells. As to the kind of experiment: J774 infection in 96-well plates, mKO fluorescence 6 days post-infection. Type of data set: cell-based, Mycobacterium tuberculosis. The conditions noted are these: for % Growth: Fig. 2D, DMSO = 100. As to the method:
For J774 infection in 96-well plates, 1.8 × 10^5 J774 cells were seeded per well in 180 μl of J774 infection media 1 day prior to infection. On the day of the assay, log-phase Mtb constitutively expressing mKO were pelleted and resuspended in 1 ml basal uptake buffer, passed 6× through a tuberculin syringe with a 25 G × 5/8″ needle, then resuspended in J774 infection media to a final OD600 = 0.2. Media was removed from 96-well plate containing the J774 cells, with 140 μl of fresh J774 infection media added back to each well. A volume of 40 μl of the Mtb suspension at OD600 = 0.2 was added to each well, followed by addition of appropriate concentration of compound or DMSO in a 20-μl final volume in J774 infection media (compound final concentration 10 μM, rifampicin final concentration 5 μM, DMSO final concentration 0.1%/well). Bacterial mKO fluorescence was read immediately after infection using a Biotek Synergy Neo2 microplate reader (bottom read monochromator, excitation 543/10 nm, emission 565/10 nm), and again 6 days post-infection. Plates were kept in humidified ziplock bags in a 37°C, 5% CO2 incubator. mKO fluorescence in DMSO-treated control samples were defined as 100% growth, and fluorescence observed in treatment conditions calculated as a percentage from that set value.

Data set [2] concerns WT Mtb (Erdman) in primary murine BMDMs. As to the kind of experiment: Primary murine bone marrow-derived macrophage infection, CFU. The data set is classed as cell-based, Mycobacterium tuberculosis. To be noted: Fig. 2E, 10 µM. As to the method: C57BL/6J wild-type mice (Jackson Laboratories) were used for extraction of BMDMs. Cells were harvested and expanded in DMEM containing 10% FBS, 15% L-cell conditioned media, 2 mM L-glutamine, 1 mM sodium pyruvate, and penicillin/streptomycin as needed in a 37°C incubator in a 5% CO2 atmosphere. […] Macrophages were lysed with water containing 0.01% sodium dodecyl sulfate and a dilution series of the samples plated on 7H10 agar for CFU determination.

In data set [3] the test system is CDC1551(rv2390c′::GFP) reporter Mtb strain. The conditions noted are these: for Normalized % induction: Fig. 2C, DMSO = 100.
In data set [4] the test system is Mtb. Description: Mtb growth assay in cholesterol medium (OD600). The conditions noted are these: for OD600: Fig. 2G.
From the text: (§1) Bacterial growth was tracked by measuring OD600 every 3 days for 12 days. […] Bacterial growth was tracked by measurement of OD600 every 3 days over 12 days.
A further data set has as its system Mtb CDC1551. As to the kind of experiment: Intrabacterial drug accumulation assay (LC-MS). To be noted: 24-hour exposure, 7H9 pH 7 ± 250 mM NaCl.
Data set [5] concerns Mtb. As to the kind of experiment: Mtb growth assay in standard 7H9 medium (OD600). The conditions noted are these: Fig. 2F.
From the text: as §1
The subject of the next data set is J774 cells. As to the kind of experiment: Intracellular drug accumulation assay in J774 cells (LC-MS). To be noted: 24 hours.
A further data set has as its system Mtb-infected J774 cells. The conditions noted are these: 10 μM, 24 hours, 5 days post-infection.
Data set [6] concerns Mtb. More on the design: method as in PMID 26574016, PMID 27227164. The conditions noted are these: mice do not form caseous necrotic lesions; cited from earlier work.
The test system of data set [7] is Mtb. Further details: method as in PMID 26574016, PMID 27227164. To be noted: subset of mice failing to respond; cited from earlier work.

“And” between values parts separate entries of the source, which are not always exact repeats. Equal entries are not always repeated. Where two headings read alike, the source gives them in different places.

Regarding `CCSc1ccc(CN2CCN(c3nc4ccccc4o3)CC2)cc1` [JSF-4300, 2-(4-(4-(ethylthio)benzyl)piperazin-1-yl)benzo[d]oxazole], the “Inhibition of Mtb growth in J774 cells” value in data set [1] (10 μM, 6 days post-infection) was “continuing to demonstrate the phenotypes seen with the parental C6 compound”. Further, the “% Growth” value in data set [1] (average of 4 replicates) is 60.6248%; in data set [1] (individual replicates) it was 59.61% and 62.908% and 58.5309% and 61.4502%. In addition, the CFU/ml in data set [2] (day 2, average) was 472667 CFU/ml; in data set [2] (day 2, individual replicates), 482000 CFU/ml and 478000 CFU/ml and 458000 CFU/ml; in data set [2] (day 4, average), 660000 CFU/ml; in [2] (day 4, individual replicates), 620000 CFU/ml and 660000 CFU/ml and 700000 CFU/ml; in [2] (day 6, average), 806667 CFU/ml; in data set [2] (day 6, individual replicates), 740000 CFU/ml (2×) and 940000 CFU/ml. The CFU/ml in [2] (day 8, average) is 966667 CFU/ml; in [2] (day 8, individual replicates), 1080000 CFU/ml and 800000 CFU/ml and 1020000 CFU/ml. Besides, the Normalized % induction in [3] (average of 3 replicates) is 125.329%; in data set [3] (individual replicates), 120.3% and 121.44% and 134.248%. Also, in data set [3] (pH 7), the “Ability to increase rv2390c′::GFP reporter signal in high [Cl−]” value was “continuing to demonstrate the phenotypes seen with the parental C6 compound”. Besides, the “Inhibition of Mtb growth in cholesterol media” value with Mtb [4] (10 μM, OD600 over 12 days) was “continuing to demonstrate the phenotypes seen with the parental C6 compound”. Moreover, the OD600 with Mtb [4] (day 3, average) was 0.06; in the data set with Mtb [4] (day 3, individual replicates) it was 0.06; in the data set on Mtb [4] (day 6, average), 0.09333; in the data set with Mtb [4] (day 6, individual replicates), 0.1 (2×) and 0.08; with Mtb [4] (day 9, average), 0.1333; in the data set with Mtb [4] (day 9, individual replicates) it was 0.14 (2×) and 0.12. Besides, the OD600 is 0.16 in the data set on Mtb [4] (day 12, average); 0.16 and 0.14 and 0.18 with Mtb [4] (day 12, individual replicates); 0.1733 in the data set with Mtb [5] (day 3, average); 0.18 (2×) and 0.16 with Mtb [5] (day 3, individual replicates); 0.3867 in the data set on Mtb [5] (day 6, average); 0.38 (2×) and 0.4 in the data set with Mtb [5] (day 6, individual replicates). The OD600 in the data set on Mtb [5] (day 9, average) was 0.4933; in the data set on Mtb [5] (day 9, individual replicates), 0.48 (2×) and 0.52; with Mtb [5] (day 12, average) it was 0.6467; in the data set with Mtb [5] (day 12, individual replicates) it was 0.64 (2×) and 0.66. For the same compound, the “Intrabacterial accumulation in Mtb” value in the data set with Mtb CDC1551 is given as “robust accumulation”. Further, the “Intracellular accumulation in J774 cells” value in the data set on J774 cells was “robust accumulation”. For the same compound, the “Accumulation in Mtb-infected J774 cells” value in the data set on Mtb-infected J774 cells was “robust accumulation”.
For the compound `NC(=O)c1cnccn1` [pyrazinamide], in the data set with Mtb [6], the “Efficacy across animals in BALB/c mice” value is on record as “uniform efficacy across animals”. For the same compound, the “Response in C3HeB/FeJ mice” value in the data set on Mtb [7] is on record as “heterogeneous response”.
Turning to `COc1nc2ccc(Br)cc2cc1[C@@H](c1ccccc1)[C@@](O)(CCN(C)C)c1cccc2ccccc12` [bedaquiline], the “Efficacy across animals in BALB/c mice” value in the data set with Mtb [6] is given as “uniform efficacy across animals”. Also, the “Response in C3HeB/FeJ mice” value in the data set on Mtb [7] is reported as “heterogeneous response”.
